According to the kinase profiling compilation of Christmann-Franck et al. (2016):

Key:
Experiment in all cases: KINOMEscan competition binding
Conditions in all cases: compound 10.0 µM
[1] = tested on: ABL1 (human), P00519 [T315I]
[2] = tested on: ABL1 (human), P00519 [Q252H]
[3] = tested on: ABL1 (human), P00519 [F317L]
ABL1 (human) = ABL1 (human) (UniProt P00519)
LRRK2 (human) = LRRK2 (human) (UniProt Q5S007)
MAST1 (human) = MAST1 (human) (UniProt Q9Y2H9)
STK32A (human) = STK32A (human) (UniProt Q8WU08)
DYRK2 (human) = DYRK2 (human) (UniProt Q92630)
MTOR (human) = MTOR (human) (UniProt P42345)
MAP3K13 (human) = MAP3K13 (human) (UniProt O43283)
PRKG2 (human) = PRKG2 (human) (UniProt Q13237)
EIF2AK1 (human) = EIF2AK1 (human) (UniProt Q9BQI3)
OXSR1 (human) = OXSR1 (human) (UniProt O95747)
[4] = tested on: MET (human), P08581 [M1250T]
[5] = tested on: PIK3CA (human), P42336 [H1047Y]
[6] = tested on: EGFR (human), P00533 [T790M]
ERN1 (human) = ERN1 (human) (UniProt O75460)
SGK3 (human) = SGK3 (human) (UniProt Q96BR1)
STK39 (human) = STK39 (human) (UniProt Q9UEW8)
MARK3 (human) = MARK3 (human) (UniProt P27448)
MAP3K1 (human) = MAP3K1 (human) (UniProt Q13233)
ERBB3 (human) = ERBB3 (human) (UniProt P21860)
RPS6KB1 (human) = RPS6KB1 (human) (UniProt P23443)
ICK (human) = ICK (human) (UniProt Q9UPZ9)
MAP3K6 (human) = MAP3K6 (human) (UniProt O95382)
ACVR2B (human) = ACVR2B (human) (UniProt Q13705)
CDK4 CCND1 (human) = CDK4 CCND1 (human) (UniProt P11802+P24385)
PLK2 (human) = PLK2 (human) (UniProt Q9NYY3)
HIPK2 (human) = HIPK2 (human) (UniProt Q9H2X6)
ROCK1 (human) = ROCK1 (human) (UniProt Q13464)
CRK2 (P.falciparum) = CRK2 (P.falciparum) (UniProt P61075)
IRAK1 (human) = IRAK1 (human) (UniProt P51617)
[7] = tested on: EGFR (human), P00533 [T790M/L858R]
PAK3 (human) = PAK3 (human) (UniProt O75914)
PIP4K2C (human) = PIP4K2C (human) (UniProt Q8TBX8)
TAOK2 (human) = TAOK2 (human) (UniProt Q9UL54)
PIK3C2G (human) = PIK3C2G (human) (UniProt O75747)
NEK4 (human) = NEK4 (human) (UniProt P51957)
CDK13 (human) = CDK13 (human) (UniProt Q14004)
[8] = tested on: MET (human), P08581 [Y1235D]
STK38 (human) = STK38 (human) (UniProt Q15208)
SGK110 (human) = SGK110 (human) (UniProt P0C264)

Chain of TAOK2 (human) (Q9UL54 whole entry, looked up): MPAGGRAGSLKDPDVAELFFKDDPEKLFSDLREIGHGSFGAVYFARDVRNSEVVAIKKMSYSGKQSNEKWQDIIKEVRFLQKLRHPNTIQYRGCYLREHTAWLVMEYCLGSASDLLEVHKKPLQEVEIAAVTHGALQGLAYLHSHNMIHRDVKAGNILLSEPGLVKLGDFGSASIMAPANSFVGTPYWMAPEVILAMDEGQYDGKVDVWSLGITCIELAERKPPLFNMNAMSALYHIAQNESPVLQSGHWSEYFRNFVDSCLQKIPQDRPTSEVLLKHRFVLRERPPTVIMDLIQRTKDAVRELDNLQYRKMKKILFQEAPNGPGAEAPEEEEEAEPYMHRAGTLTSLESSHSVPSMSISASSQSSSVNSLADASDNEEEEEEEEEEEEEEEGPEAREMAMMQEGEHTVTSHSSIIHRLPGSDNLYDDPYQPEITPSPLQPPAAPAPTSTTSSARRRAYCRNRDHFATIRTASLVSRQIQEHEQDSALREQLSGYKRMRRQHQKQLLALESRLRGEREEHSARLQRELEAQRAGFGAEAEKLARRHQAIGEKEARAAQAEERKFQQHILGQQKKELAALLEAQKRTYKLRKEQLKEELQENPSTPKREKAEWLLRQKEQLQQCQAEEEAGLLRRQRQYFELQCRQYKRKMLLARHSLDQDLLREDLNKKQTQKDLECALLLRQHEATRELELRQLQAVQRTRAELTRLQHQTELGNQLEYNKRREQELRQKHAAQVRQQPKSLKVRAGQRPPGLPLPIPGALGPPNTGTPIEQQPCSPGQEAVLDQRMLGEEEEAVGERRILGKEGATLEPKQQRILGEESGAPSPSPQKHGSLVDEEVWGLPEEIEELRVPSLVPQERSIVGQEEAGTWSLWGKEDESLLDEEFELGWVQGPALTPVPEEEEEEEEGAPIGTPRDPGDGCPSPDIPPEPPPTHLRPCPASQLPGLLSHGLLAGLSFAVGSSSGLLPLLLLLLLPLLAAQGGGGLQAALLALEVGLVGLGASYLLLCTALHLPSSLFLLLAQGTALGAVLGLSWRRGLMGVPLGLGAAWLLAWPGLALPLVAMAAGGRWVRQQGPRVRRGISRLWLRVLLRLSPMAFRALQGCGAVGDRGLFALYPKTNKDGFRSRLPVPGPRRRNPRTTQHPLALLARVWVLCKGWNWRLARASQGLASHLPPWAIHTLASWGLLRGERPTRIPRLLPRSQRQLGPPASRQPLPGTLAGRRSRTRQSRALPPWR
Chain of ROCK1 (human) (Q13464 whole entry, looked up): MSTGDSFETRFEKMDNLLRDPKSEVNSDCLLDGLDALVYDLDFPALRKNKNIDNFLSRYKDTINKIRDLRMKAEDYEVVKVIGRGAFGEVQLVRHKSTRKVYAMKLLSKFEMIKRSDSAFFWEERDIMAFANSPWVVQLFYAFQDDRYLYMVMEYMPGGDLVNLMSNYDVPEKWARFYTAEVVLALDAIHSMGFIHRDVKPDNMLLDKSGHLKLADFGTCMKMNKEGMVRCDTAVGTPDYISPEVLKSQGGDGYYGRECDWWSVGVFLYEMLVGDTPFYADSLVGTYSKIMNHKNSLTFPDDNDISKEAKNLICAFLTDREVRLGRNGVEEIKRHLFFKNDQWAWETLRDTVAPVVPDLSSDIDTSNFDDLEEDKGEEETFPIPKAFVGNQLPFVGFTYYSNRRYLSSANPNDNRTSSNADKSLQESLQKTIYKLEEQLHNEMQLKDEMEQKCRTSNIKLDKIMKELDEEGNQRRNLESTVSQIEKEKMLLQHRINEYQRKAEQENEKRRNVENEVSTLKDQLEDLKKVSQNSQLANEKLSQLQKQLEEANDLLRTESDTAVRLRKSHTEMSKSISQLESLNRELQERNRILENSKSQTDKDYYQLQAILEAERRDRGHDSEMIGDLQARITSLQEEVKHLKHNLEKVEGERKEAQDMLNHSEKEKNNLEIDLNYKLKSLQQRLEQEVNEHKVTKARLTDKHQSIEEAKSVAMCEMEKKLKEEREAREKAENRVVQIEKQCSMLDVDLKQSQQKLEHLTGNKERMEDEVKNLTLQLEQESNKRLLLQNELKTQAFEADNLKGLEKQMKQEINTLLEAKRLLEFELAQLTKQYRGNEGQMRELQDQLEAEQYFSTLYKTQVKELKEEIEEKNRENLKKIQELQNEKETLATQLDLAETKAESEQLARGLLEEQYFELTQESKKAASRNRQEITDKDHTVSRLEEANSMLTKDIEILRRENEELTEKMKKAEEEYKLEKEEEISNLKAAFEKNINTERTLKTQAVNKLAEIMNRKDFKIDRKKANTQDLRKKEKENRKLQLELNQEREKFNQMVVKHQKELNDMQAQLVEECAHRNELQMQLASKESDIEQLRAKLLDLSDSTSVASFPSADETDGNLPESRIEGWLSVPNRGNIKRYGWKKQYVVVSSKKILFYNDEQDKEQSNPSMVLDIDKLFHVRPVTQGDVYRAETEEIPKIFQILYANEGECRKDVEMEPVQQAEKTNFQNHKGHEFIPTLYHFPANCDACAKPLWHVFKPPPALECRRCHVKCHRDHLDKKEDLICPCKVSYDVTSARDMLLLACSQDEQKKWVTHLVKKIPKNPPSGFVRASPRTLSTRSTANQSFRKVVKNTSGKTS
Chain of LRRK2 (human) (Q5S007 whole entry, looked up): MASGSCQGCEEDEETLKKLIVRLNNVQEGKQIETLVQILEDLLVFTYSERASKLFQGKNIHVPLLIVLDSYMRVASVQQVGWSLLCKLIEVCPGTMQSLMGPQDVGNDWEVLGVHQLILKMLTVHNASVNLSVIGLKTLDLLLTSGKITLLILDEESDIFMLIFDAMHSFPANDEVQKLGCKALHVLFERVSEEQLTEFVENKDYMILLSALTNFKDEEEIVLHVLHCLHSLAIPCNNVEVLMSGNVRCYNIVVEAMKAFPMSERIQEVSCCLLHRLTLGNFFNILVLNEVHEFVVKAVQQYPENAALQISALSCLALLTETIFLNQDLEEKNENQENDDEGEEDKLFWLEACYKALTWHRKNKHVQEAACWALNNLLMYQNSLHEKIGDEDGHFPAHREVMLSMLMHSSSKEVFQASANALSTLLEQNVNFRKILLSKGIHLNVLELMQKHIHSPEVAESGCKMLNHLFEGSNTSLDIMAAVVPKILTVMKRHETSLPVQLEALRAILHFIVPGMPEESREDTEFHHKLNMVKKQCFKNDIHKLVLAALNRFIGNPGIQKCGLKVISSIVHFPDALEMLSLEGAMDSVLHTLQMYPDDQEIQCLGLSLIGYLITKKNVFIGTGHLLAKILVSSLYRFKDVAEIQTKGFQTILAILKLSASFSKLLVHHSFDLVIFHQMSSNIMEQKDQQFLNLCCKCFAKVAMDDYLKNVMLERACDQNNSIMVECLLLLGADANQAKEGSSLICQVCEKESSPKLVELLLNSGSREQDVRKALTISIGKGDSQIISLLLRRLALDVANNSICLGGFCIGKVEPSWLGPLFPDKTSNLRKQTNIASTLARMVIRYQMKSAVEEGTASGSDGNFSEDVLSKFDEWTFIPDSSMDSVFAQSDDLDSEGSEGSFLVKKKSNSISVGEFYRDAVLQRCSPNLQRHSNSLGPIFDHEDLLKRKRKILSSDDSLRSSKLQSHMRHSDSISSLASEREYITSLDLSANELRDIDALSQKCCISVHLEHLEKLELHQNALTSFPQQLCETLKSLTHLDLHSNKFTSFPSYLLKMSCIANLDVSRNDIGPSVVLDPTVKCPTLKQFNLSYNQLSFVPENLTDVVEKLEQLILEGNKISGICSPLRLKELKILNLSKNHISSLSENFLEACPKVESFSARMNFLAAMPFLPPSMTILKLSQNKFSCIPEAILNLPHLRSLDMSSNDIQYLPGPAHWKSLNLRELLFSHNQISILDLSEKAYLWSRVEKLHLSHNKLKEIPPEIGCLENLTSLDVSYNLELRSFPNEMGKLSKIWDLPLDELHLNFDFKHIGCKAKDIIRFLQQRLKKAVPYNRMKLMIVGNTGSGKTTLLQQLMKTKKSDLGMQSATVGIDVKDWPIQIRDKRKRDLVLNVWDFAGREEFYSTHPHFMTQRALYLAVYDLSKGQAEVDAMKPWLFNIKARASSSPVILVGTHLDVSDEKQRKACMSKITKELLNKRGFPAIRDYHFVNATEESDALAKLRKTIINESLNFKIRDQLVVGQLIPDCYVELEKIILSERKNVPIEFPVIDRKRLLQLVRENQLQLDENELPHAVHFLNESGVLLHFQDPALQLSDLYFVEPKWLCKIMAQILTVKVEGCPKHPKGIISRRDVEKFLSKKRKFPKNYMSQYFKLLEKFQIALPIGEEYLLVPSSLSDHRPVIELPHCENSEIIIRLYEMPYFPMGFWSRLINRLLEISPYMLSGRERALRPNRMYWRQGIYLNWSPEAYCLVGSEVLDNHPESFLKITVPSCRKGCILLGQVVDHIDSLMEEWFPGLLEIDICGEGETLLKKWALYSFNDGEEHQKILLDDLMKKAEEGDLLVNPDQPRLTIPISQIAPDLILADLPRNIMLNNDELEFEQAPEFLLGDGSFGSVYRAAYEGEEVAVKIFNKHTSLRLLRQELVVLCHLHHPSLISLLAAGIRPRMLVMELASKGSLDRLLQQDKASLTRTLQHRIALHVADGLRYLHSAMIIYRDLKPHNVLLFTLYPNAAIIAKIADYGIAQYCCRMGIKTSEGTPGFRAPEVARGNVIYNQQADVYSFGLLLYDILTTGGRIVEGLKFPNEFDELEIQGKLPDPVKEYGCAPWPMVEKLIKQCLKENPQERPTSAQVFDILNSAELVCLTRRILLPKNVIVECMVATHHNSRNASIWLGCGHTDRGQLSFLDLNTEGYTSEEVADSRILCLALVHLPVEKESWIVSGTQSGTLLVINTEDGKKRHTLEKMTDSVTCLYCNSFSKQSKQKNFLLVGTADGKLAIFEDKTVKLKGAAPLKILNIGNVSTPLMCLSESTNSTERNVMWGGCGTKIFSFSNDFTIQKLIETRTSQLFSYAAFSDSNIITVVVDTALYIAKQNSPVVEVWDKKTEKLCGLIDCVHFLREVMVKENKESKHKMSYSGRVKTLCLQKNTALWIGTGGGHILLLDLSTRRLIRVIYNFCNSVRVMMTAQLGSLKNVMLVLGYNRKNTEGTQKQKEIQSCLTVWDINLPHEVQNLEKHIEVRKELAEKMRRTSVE

Work on `CCN1CCN(Cc2ccc(NC(=O)c3ccc(C)c(Oc4ccnc5[nH]ccc45)c3)cc2C(F)(F)F)CC1` yielded a kinase still bound, per cent of control [1] of 0%, a kinase still bound, per cent of control [2] of 0.4% and a kinase still bound, per cent of control [3] of 0.1%. The kinase still bound, per cent of control (ABL1 (human)) was 0.1%.
In the case of `CCOc1cc(N2CCC(N3CCCCC3)CC2)ccc1Nc1nc(Nc2ccccc2S(=O)(=O)C(C)C)c2cn[nH]c2n1`, the kinase still bound, per cent of control (LRRK2 (human)) is reported as 0.65%, the kinase still bound, per cent of control (MAST1 (human)) is reported as 46% and the kinase still bound, per cent of control (STK32A (human)) is reported as 32%. It also gave a kinase still bound, per cent of control (DYRK2 (human)) of 90%, a kinase still bound, per cent of control (MTOR (human)) of 86% and a kinase still bound, per cent of control (MAP3K13 (human)) of 100%. For the same compound, the kinase still bound, per cent of control (PRKG2 (human)) was 100%, the kinase still bound, per cent of control (EIF2AK1 (human)) was 100% and the kinase still bound, per cent of control (OXSR1 (human)) was 0.05%. It also gave a kinase still bound, per cent of control [4] of 100%, a kinase still bound, per cent of control [5] of 100% and a kinase still bound, per cent of control [6] of 0.25%. The kinase still bound, per cent of control (ERN1 (human)) was 92%, the kinase still bound, per cent of control (SGK3 (human)) was 92% and the kinase still bound, per cent of control (STK39 (human)) was 37%. The kinase still bound, per cent of control (MARK3 (human)) was 100%, the kinase still bound, per cent of control (MAP3K1 (human)) was 82% and the kinase still bound, per cent of control (ERBB3 (human)) was 55%. It also gave a kinase still bound, per cent of control (RPS6KB1 (human)) of 100%, a kinase still bound, per cent of control (ICK (human)) of 89% and a kinase still bound, per cent of control (MAP3K6 (human)) of 99%. The kinase still bound, per cent of control (ACVR2B (human)) was 100%, the kinase still bound, per cent of control (CDK4 CCND1 (human)) was 82% and the kinase still bound, per cent of control (PLK2 (human)) was 100%. The kinase still bound, per cent of control (HIPK2 (human)) was 89%, the kinase still bound, per cent of control (ROCK1 (human)) was 4.8% and the kinase still bound, per cent of control (CRK2 (P.falciparum)) was 100%. For the same compound, the kinase still bound, per cent of control (IRAK1 (human)) was 93%, the kinase still bound, per cent of control [7] was 25% and the kinase still bound, per cent of control (PAK3 (human)) was 59%. It also gave a kinase still bound, per cent of control (PIP4K2C (human)) of 100%, a kinase still bound, per cent of control (TAOK2 (human)) of 66% and a kinase still bound, per cent of control (PIK3C2G (human)) of 100%. For the same compound, the kinase still bound, per cent of control (NEK4 (human)) was 74%, the kinase still bound, per cent of control (CDK13 (human)) was 100% and the kinase still bound, per cent of control [8] was 100%. It also gave a kinase still bound, per cent of control (STK38 (human)) of 98% and a kinase still bound, per cent of control (SGK110 (human)) of 100%.
For `COc1cc(N2CCC(N3CCN(C)CC3)CC2)ccc1Nc1ncc(Cl)c(Nc2ccccc2S(=O)(=O)C(C)C)n1`, the kinase still bound, per cent of control [1] was 0.1%, the kinase still bound, per cent of control [2] was 2.2% and the kinase still bound, per cent of control [3] was 0.7%. For the same compound, the kinase still bound, per cent of control (ABL1 (human)) was 7.3%.
In the case of `CCN1CCN(Cc2ccc(NC(=O)c3ccc(C)c(/C=C/c4cnc(Nc5cc(N6CCNCC6)nc(C)n5)cn4)c3)cc2C(F)(F)F)CC1`, the kinase still bound, per cent of control (LRRK2 (human)) is reported as 63%, the kinase still bound, per cent of control (MAST1 (human)) is reported as 87% and the kinase still bound, per cent of control (STK32A (human)) is reported as 100%. For the same compound, the kinase still bound, per cent of control (DYRK2 (human)) was 74%, the kinase still bound, per cent of control (MTOR (human)) was 100% and the kinase still bound, per cent of control (MAP3K13 (human)) was 6.6%. For the same compound, the kinase still bound, per cent of control (PRKG2 (human)) was 88%, the kinase still bound, per cent of control (EIF2AK1 (human)) was 100% and the kinase still bound, per cent of control (OXSR1 (human)) was 76%. It also gave a kinase still bound, per cent of control [4] of 89%, a kinase still bound, per cent of control [5] of 68% and a kinase still bound, per cent of control [6] of 9.4%. For the same compound, the kinase still bound, per cent of control (ERN1 (human)) was 71%, the kinase still bound, per cent of control (SGK3 (human)) was 80% and the kinase still bound, per cent of control (STK39 (human)) was 100%. The kinase still bound, per cent of control (MARK3 (human)) was 58%, the kinase still bound, per cent of control (MAP3K1 (human)) was 75% and the kinase still bound, per cent of control (ERBB3 (human)) was 100%. The kinase still bound, per cent of control (RPS6KB1 (human)) was 6.2%, the kinase still bound, per cent of control (ICK (human)) was 71% and the kinase still bound, per cent of control (MAP3K6 (human)) was 93%. The kinase still bound, per cent of control (ACVR2B (human)) was 92%, the kinase still bound, per cent of control (CDK4 CCND1 (human)) was 100% and the kinase still bound, per cent of control (PLK2 (human)) was 69%. For the same compound, the kinase still bound, per cent of control (HIPK2 (human)) was 49%, the kinase still bound, per cent of control (ROCK1 (human)) was 100% and the kinase still bound, per cent of control (CRK2 (P.falciparum)) was 55%. The kinase still bound, per cent of control (IRAK1 (human)) was 50%, the kinase still bound, per cent of control [7] was 65% and the kinase still bound, per cent of control (PAK3 (human)) was 14%. For the same compound, the kinase still bound, per cent of control (PIP4K2C (human)) was 61%, the kinase still bound, per cent of control (TAOK2 (human)) was 5.7% and the kinase still bound, per cent of control (PIK3C2G (human)) was 87%. The kinase still bound, per cent of control (NEK4 (human)) was 28%, the kinase still bound, per cent of control (CDK13 (human)) was 46% and the kinase still bound, per cent of control [8] was 93%. The kinase still bound, per cent of control (STK38 (human)) was 79% and the kinase still bound, per cent of control (SGK110 (human)) was 100%.
